# ChEMBL document CHEMBL1151557, “Simplified analogs of himbacine displaying potent binding affinity for muscarinic receptors” (Bioorg Med Chem Lett, 1993)
# Experiments:
# [1] = molecular target: T1, Muscarinic acetylcholine receptor M2 (Rattus norvegicus, UniProt P10980); experiment: Displacement of [3H]QNB from rat brain stem muscarinic receptor 2 (M2)
# T1 sequence (P10980 whole entry): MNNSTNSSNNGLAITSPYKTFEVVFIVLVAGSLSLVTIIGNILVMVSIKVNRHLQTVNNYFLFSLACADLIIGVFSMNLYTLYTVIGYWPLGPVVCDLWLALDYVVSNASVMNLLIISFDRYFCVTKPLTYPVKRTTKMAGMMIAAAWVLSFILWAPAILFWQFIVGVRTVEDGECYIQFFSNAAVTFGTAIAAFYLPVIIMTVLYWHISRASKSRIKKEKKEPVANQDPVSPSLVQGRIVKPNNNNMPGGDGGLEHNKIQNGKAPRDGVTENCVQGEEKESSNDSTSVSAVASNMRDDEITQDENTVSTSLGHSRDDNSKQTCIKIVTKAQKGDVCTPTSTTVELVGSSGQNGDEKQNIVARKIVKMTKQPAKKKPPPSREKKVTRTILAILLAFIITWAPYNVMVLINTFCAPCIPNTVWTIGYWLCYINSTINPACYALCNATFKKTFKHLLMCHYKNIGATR
# [2] = molecular target: T2, Muscarinic acetylcholine receptor M1 (Homo sapiens, UniProt P11229); experiment: Displacement of [3H]QNB from muscarinic receptor 1 expressed in CHO-K1 cells; type: cell-based
# T2 sequence (P11229 whole entry): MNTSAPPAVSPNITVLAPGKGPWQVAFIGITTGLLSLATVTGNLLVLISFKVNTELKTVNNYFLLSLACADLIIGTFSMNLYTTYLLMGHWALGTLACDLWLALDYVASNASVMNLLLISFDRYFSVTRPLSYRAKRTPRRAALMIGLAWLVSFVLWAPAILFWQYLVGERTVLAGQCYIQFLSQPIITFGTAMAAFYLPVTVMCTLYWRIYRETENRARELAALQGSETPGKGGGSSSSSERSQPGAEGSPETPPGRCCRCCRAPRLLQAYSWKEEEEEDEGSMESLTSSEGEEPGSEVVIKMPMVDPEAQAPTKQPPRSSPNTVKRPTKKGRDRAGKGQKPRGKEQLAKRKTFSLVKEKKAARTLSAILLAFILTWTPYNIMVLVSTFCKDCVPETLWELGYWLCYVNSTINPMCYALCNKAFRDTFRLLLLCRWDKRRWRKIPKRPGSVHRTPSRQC
Structure (SMILES),Kd [1],Kd [2]
C[C@@H]1OC(=O)[C@H]2C[C@H]3CCCC[C@@H]3[C@@H](/C=C/[C@H]3CCC[C@H](C)N3C)[C@@H]12 [HIMBACINE],9.05 nM,168 nM
CN1CCCCC1C/C=C/C1c2ccccc2Cc2ccccc21 (stereo not given),22.6 nM,5.23 nM
CN1CCCCC1/C=C/c1c2ccccc2cc2ccccc12 (stereo not given),635 nM,679 nM
CN1CCCC[C@H]1CC=C1c2ccccc2Cc2ccccc21,35 nM,24.2 nM
CN1CCCC[C@H]1/C=C/C1c2ccccc2Cc2ccccc21,2.19 nM,4.92 nM
CN1CCCC[C@@H]1CC=C1c2ccccc2Cc2ccccc21,14.5 nM,11.6 nM
CN1CCCCC1CCC=C1c2ccccc2Cc2ccccc21 (stereo not given),7.64 nM,4.99 nM
CN1CCCCC1CC=C1c2ccccc2Cc2ccccc21 (racemic),3 nM,2.7 nM
CN1CCCCC1/C=C/C1c2ccccc2Cc2ccccc21 (racemic),20.5 nM,1.75 nM
CN1CCCC[C@@H]1/C=C/C1c2ccccc2Cc2ccccc21,3.17 nM,1.53 nM
